Experimental data reported in US10874687B1 (Atea Pharmaceuticals, Inc., priority 2020, dated 2020).
Like-named read-outs stand apart in the source and are kept apart here. Marks after values point to notes of the source that are not given here.

What was measured:
[1] = tested on: HCV; conditions: HCV-infected subjects, cited from earlier work
[2] = in vitro; conditions: human
[3] = tested on: SARS-CoV-2 (WA1); assay: microbe, parasite or virus in culture; format: cell-based; conditions: for EC90: Severe acute respiratory syndrome coronavirus 2, HAE
[4] = tested on: HCoV-229E; assay: microbe, parasite or virus in culture; format: cell-based, human coronavirus alpha-229E; conditions: for EC50: Huh-7, read-out: Neutral Red Assay EC50
[5] = tested on: Huh-7 cells; conditions: human
[6] = tested on: HCoV-229E; assay: Protection of BHK-21 cells from virus-induced cytopathogenicity (MTT); format: cell-based, human coronavirus; conditions: Human coronavirus 229E, read-out: EC50
Method: (§1) After a 3-day incubation at 37° C. cell viability was determined by the MTT method as described by Pauwels et al. (J. Virol. Methods 1988, 20, 309-321).
In an initial screening, BHK-21 cells acutely infected with a seasonal human alpha coronavirus, HCoV-229E, were exposed to serial dilutions of Compound 1A. […] No toxicity was detected from either drug.
(§2) BHK-21 cells: Test compounds were dissolved in DMSO at 100 mM and then diluted in Minimum Essential Medium with Earle's salts (MEM-E) containing 1 mM sodium pyruvate and 25 μg/mL kanamycin, supplemented with 10% FBS (growth medium) to final concentrations of 100, 20, 4 and 0.8 μM (two 24-well replica plates each). After BHK-21 cells were grown to confluency in 96-well plates, growth medium was replaced with fresh maintenance medium (growth medium with 1% inactivated FBS in place of 10% FBS) containing serially diluted test compound and HCoV-229E at a multiplicity of infection (MOI) of 0.01. Uninfected cells in the presence of serially diluted compound were used to assess the cytotoxicity of compounds. After a 3-day incubation at 37° C. in a humidified 5% CO2 atmosphere, cell viability was determined by the MTT method (Pauwels, R et al. J. Virol. Methods 20(4):309-321 (1988)).

[7] = tested on: mock infected MES-1 cells; assay: Cytotoxicity in mock infected MES-1 cells (MTT); format: cell-based; conditions: 3 days, Table 3B
Method: (§3) To determine the cytotoxicity, cells were seeded at an initial density of 1×10^6 cells/mL in 96 well plates containing Minimum Essential Medium with Earles's salts (MEM-E), L-glutamine, 1 mM sodium pyruvate and 25 mg/L kanamycin, supplemented with 10% fetal bovine serum. Cell cultures were then incubated at 37° C. in a humidified 5% CO2 atmosphere in the absence or presence of serial dilutions of test compounds. Cell viability was determined by the MTT method.

[8] = Cytotoxicity in mock infected MES-1 cells (MTT); format: cell-based; conditions: Table 3A
Method: as §3

[9] = tested on: HCoV; assay: Protection of MES-1 cells from virus-induced cytopathogenicity (MTT); format: cell-based; conditions: unidentified human coronavirus, 72 h, 50% protection of MES-1 cells, day 3 post-infection
Method: as §1

[10] = tested on: mock infected BHK cells; assay: Cytotoxicity in mock infected BHK-21 cells (MTT); format: cell-based, hamster; conditions: mock infected BHK cells; MTT; 3 days; Table 2B
Method: as §3, §2

[11] = Cytotoxicity in mock infected BHK-21 cells (MTT); format: cell-based, hamster; conditions: hamster
Method: as §3, §2

[12] = read-out: Virus Yield Reduction Assay EC90
[13] = Human coronavirus 229E, Huh-7, read-out: Virus Yield Reduction Assay EC90

For `CNc1nc(N)nc2c1ncn2[C@@H]1O[C@H](CO[P@@](=O)(N[C@@H](C)C(=O)OC(C)C)Oc2ccccc2)[C@@H](O)[C@@]1(C)F` [Compound 2A], the efficacy [1] is listed as “high rate of efficacy” and the safety and tolerability ([1]; up to 12 weeks) is listed as “safe and well-tolerated”.
In the case of `O=c1nc(NO)ccn1[C@@H]1O[C@H](CO)[C@@H](O)[C@H]1O` [N^4-hydroxycytidine, reference compound], the CC50 [2] is reported as greater than 19 µM, the “Selectivity Index” value [3] is reported as greater than 5.1 and the EC90 ([3]; read-out: EC90 of the single replicates) is reported as 4.7 µM. The EC90 [3, 12] was 3.9 µM.
In the case of `CCN(CC)CCCC(C)Nc1ccnc2cc(Cl)ccc12` (stereo not drawn) [chloroquine, reference compound], the EC50 ([4]; Human coronavirus 229E) is reported as 8.1 µM, the EC90 [4, 13] is reported as less than 0.05 µM and the CC50 [5] is reported as 21 µM.
For `CCN(CCO)CCCC(C)Nc1ccnc2cc(Cl)ccc12` (stereo not drawn) [hydroxychloroquine, reference compound], the “Selectivity Index (CC50/EC50)” value [4] was 3.5^c, the EC50 ([4]; Human coronavirus 229E) was 7.4 µM and the EC90 [4, 13] was less than 0.05 µM. The EC90 [4, 12] was less than 0.048 µM and the CC50 [5] was 26 µM.
Work on `CC(C)OC(=O)[C@H](C)N[P@](=O)(OC[C@H]1O[C@@H](n2ccc(=O)[nH]c2=O)[C@](C)(F)[C@@H]1O)Oc1ccccc1` [sofosbuvir, reference compound] yielded an EC50 ([6]; BHK, 72 h, 50% protection of BHK cells, MTT, day 3 post-infection, Table 2A) greater than 100 µM, an EC50 ([6]; BHK, 72 h, 50% protection of BHK cells, MTT, day 3 post-infection, Table 2B) greater than 100 µM and an EC50 ([6]; BHK-21, HCoV-229E in BHK-21, dye staining, average of 2 experiments, Table 5) greater than 100 µM. The CC50 [7] was greater than 100 µM, the CC50 at 3 days [8] was greater than 100 µM and the EC50 ([9]; Table 3A) was greater than 100 µM. It also gave an EC50 ([9]; Table 3B) greater than 100 µM, a CC50 [10] greater than 100 µM and a CC50 at 3 days ([11]; mock infected BHK-21 cells, mock infected BHK cells, MTT, 3 days, Table 2A) greater than 100 µM. The CC50 at 3 days ([11]; uninfected BHK-21 cells, BHK-21, Table 5) was greater than 100 µM.
